Active and inactive are the calls of the source. The calls are words filed in the database; no cut-off is given here.
What was measured:
[1] = biological target: T1, Sortase B (Staphylococcus aureus) (UniProt Q2FZE3); test: Inhibitory activity against Sortase B
T1 sequence (whole entry): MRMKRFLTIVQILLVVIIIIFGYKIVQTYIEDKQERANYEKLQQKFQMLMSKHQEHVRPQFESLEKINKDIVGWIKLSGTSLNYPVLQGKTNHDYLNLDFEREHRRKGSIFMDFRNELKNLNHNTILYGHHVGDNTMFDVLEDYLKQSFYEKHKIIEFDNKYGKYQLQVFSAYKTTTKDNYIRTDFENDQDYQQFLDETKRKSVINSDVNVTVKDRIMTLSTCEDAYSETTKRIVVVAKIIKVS

[2] = biological target: T2, Sortase A (Staphylococcus aureus) (UniProt Q9S446); test: Inhibitory activity against Sortase A
T2 sequence (whole entry): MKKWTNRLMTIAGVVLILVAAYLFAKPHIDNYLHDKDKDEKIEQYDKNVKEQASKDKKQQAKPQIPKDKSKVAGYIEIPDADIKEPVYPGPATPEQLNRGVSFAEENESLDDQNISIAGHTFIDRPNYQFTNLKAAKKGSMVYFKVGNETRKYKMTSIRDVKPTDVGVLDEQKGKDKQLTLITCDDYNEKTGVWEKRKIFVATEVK

Row | SMILES | Activity [1] | Activity [2]
1 | C[C@@H](O)[C@@H](CS)NC(=O)[C@H](CCC(N)=O)NC(=O)[C@@H]1CCCN1C(=O)[C@H](CC(N)=O)NC(=O)OCc1ccccc1 | Active | 
2 | CC(C)C[C@H](NC(=O)OCc1ccccc1)C(=O)N1CCC[C@H]1C(=O)N[C@@H](C)C(=O)N[C@H](CS)[C@@H](C)O |  | Active

From ChEMBL document CHEMBL1140418, “Synthesis of (2R,3S) 3-amino-4-mercapto-2-butanol, a threonine analogue for covalent inhibition of sortases” (Bioorg Med Chem Lett, 2005)
